Measurements as given in US6806359B1, “Hormone receptor compositions and methods” (The Salk Institute for Biological Studies, priority 1986, dated 2004).

Legend:
[1] = molecular target: T1, rTR alpha (Rattus norvegicus, UniProt P63059); assay: ^125I-T3 binding to in vitro translated rTR alpha (Scatchard and competition); settings: excess competitor
T1 construct: made in house; host or cells: rabbit reticulocyte lysate (SP6 transcripts of rbeA12B)
T1 sequence (P63059 1-410 isoform P63059-2): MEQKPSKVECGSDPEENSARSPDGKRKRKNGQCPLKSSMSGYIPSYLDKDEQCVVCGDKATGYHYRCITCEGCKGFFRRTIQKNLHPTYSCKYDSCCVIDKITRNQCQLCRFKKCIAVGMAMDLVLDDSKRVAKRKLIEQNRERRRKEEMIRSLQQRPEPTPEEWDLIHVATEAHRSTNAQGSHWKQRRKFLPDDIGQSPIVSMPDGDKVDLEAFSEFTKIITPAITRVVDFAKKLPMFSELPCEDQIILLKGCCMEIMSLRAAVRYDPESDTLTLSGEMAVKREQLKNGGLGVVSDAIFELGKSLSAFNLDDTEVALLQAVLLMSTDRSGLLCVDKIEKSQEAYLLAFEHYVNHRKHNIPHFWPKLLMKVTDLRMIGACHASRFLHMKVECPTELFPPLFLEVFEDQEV
Description: In vitro translation and thyroid hormone binding of rTR alpha FIG. 69 rTR alpha was transcribed in vitro and translated in a rabbit reticulocyte lysate. […] Lane 1, no added RNA; lane 2, rbeA12, which contains the entire 5′ untranslated region; lane 3, rbeA12B, which contains only 97 bp of 5′ untranslated sequence. […] Samples from rbeA12B programmed lysates were mixed with increasing concentrations of unlabeled thyroid hormone or analogs to compete with labeled hormone. […] In vitro transcription and translation and hormone binding were performed as described (22, 23).
23. For in vitro transcription, the entire EcoRI insert of rbeA12 was cloned into pGEM1 (Promega Biotec). […] For thyroid hormone binding, transcriptions were performed with SP6 polymerase and 5 to 10 micrograms of rbeA12B linearized with SstI. […] Thyroid hormone binding for both the Scatchard and competition analyses were determined in the same manner, except that unlabeled protein was used for the Scatchard analysis. […] Specific hormone binding was determined by adding a 1000-fold excess of unlabeled hormone and assayed by counting radioactivity eluting in the excluded volume from a Sephadex G-25 fine (Pharmacia) 0.9-by 4.0-cm. column.

[2] = molecular target: T2, GR (Homo sapiens, UniProt P04150); assay: hGR functional assay: CAT activity in CV-1 cells cotransfected with pRShGR alpha (or mutant) and pMTVCAT; assay type: cell-based; parameters: The expression vector linking the RSV LTR to full length hGR cDNA (pRShGR alpha) was designed to obtain high levels of expression; expressed in transfected cells; host or cells: CV-1 monkey kidney cells, cotransfected with pMTVCAT; settings: 100 nM steroid, cotransfected CV-1 cells
T2 sequence (P04150 1-777): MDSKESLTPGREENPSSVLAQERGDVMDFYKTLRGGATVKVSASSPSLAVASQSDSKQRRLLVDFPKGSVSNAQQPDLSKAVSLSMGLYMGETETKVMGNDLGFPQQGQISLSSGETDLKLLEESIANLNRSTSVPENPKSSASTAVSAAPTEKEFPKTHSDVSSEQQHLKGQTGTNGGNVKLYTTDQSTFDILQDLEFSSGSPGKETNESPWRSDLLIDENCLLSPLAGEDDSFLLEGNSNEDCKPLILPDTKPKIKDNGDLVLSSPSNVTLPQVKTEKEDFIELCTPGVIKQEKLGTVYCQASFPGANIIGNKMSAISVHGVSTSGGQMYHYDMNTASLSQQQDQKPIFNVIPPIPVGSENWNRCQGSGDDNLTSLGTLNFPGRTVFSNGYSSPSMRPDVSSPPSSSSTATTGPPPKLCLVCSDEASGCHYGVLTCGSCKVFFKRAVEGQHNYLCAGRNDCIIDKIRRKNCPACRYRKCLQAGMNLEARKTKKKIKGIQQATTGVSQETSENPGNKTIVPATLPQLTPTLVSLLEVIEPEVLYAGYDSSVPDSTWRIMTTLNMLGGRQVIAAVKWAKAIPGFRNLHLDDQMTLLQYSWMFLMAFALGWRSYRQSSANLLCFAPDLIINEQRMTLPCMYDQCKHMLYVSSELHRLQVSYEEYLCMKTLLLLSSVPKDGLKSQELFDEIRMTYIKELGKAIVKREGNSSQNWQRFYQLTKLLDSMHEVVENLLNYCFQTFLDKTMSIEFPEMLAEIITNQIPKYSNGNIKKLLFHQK
Description: The assay system and strategy used to study the expression of functional hGR from the cloned cDNA (See Experimental Section I) is shown in FIG. 11. In these experiments, a glucocorticoid-responsive promoter/enhancer element linked to a reporter gene was introduced into a receptor-negative cell. […] For our assay, we chose to use the MTV LTR fused to the sequence coding for chloramphenicol acetyltransferase (CAT) (EC2.3.1.28). […] Cotransfection of pMTVCAT (or pGMCAT) with a receptor expression plasmid provides functional receptors that allow induction of CAT activity upon treatment of the transfected cells with glucocorticoid hormone. In addition, biochemical studies such as steroid binding activity and Western blot analysis of the expressed receptors can be performed simultaneously.
The cells are then cultured in the presence or absence of hormone. CV-1 cells were used to monitor induction of CAT activity, and COS cells were used to measure steroid-binding capacity and the expression of hGR protein.
CAT assays were performed as indicated in Experimental Procedures (See Section II. F.). C, chloramphenicol; AC, 3-acetylchloramphenicol.
The levels of CAT activity were plotted as percentages of the maximal response observe in a particular experiment.
Each plasmid preparation used for transfection was purified using two consecutive CsCl-EtBr equilibrium gradients. […]

C[C@]12CC[C@@H]3c4ccc(O)cc4CC[C@H]3[C@@H]1CC[C@@H]2O [oestradiol]
competition for T3 binding to rTR alpha by excess compound [1]: no competition
induction of CAT activity by steroid [2]: failed to induce CAT activity
